Article PMC8980814 (The Journal of Biological Chemistry, 2022)

Legend:
Test in all cases: whole-cell patch clamp, HEK-293T
Type in all cases: cell-based
TCaV1 [1] = biological target: T1, TCaV1 (Trichoplax adhaerens, UniProt A0A8K1XS01); conditions: for inhibition at 10 µM: read-out: % block at 10 μM
rCaV1.2 [2] = biological target: T2, rCaV1.2 (Rattus norvegicus, UniProt P22002); conditions: for inhibition at 10 µM: read-out: % block at 10 μM
TCaV1 [3] = biological target: T1, TCaV1; conditions: 3 mM external Ca2+, step from -100 mV to 0 mV, pH 7.4, agonist
rCaV1.2 [4] = biological target: T2, rCaV1.2; conditions: 3 mM external Ca2+, step from -100 mV to 0 mV, pH 7.4, agonist

T1 sequence (A0A8K1XS01 1-1822): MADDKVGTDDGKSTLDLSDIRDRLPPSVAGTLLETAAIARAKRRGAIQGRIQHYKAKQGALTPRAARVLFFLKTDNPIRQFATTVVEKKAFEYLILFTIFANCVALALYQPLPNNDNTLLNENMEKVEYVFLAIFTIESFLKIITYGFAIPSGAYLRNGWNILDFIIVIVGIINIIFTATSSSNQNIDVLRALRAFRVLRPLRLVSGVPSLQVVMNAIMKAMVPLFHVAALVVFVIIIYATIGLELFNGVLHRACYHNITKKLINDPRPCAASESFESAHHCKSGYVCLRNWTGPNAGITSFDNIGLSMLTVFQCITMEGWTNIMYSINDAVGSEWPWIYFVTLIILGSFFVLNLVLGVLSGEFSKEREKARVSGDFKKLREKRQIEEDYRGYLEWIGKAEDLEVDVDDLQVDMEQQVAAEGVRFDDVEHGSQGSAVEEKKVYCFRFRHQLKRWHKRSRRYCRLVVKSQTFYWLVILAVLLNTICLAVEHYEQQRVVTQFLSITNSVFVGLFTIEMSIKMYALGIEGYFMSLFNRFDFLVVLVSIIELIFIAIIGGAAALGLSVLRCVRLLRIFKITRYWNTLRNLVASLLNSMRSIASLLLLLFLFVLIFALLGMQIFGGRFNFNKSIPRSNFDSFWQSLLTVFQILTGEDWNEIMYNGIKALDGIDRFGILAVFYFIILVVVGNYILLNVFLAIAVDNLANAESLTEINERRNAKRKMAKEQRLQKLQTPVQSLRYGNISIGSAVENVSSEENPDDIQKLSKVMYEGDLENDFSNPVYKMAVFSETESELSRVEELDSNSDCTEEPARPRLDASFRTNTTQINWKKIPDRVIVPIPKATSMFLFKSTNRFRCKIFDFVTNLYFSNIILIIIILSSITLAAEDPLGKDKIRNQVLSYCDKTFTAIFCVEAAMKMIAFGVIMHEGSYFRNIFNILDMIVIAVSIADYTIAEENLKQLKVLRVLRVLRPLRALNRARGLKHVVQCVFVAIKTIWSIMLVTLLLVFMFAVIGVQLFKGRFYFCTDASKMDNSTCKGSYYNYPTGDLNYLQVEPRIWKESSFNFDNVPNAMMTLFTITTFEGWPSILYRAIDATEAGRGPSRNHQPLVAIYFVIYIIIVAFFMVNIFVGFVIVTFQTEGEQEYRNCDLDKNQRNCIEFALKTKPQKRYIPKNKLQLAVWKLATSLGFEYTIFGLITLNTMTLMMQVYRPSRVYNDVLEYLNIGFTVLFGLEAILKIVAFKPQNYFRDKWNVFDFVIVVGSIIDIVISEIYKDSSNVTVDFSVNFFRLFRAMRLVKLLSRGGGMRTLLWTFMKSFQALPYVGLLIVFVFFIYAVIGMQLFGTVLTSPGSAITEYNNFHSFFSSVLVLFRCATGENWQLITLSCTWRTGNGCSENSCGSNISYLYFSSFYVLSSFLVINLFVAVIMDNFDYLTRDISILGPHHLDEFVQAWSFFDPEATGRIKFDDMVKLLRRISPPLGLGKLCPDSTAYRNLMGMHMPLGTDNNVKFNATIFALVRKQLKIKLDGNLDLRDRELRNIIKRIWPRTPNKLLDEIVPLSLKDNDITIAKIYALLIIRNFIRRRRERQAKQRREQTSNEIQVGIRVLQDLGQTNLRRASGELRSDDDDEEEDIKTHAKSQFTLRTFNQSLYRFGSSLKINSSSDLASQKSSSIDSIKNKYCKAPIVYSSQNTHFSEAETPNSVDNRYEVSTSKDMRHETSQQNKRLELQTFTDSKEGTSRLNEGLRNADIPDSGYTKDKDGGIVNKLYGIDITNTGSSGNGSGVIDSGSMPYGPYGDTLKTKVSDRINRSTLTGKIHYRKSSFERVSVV
T1 sequence (P54283 whole entry partner): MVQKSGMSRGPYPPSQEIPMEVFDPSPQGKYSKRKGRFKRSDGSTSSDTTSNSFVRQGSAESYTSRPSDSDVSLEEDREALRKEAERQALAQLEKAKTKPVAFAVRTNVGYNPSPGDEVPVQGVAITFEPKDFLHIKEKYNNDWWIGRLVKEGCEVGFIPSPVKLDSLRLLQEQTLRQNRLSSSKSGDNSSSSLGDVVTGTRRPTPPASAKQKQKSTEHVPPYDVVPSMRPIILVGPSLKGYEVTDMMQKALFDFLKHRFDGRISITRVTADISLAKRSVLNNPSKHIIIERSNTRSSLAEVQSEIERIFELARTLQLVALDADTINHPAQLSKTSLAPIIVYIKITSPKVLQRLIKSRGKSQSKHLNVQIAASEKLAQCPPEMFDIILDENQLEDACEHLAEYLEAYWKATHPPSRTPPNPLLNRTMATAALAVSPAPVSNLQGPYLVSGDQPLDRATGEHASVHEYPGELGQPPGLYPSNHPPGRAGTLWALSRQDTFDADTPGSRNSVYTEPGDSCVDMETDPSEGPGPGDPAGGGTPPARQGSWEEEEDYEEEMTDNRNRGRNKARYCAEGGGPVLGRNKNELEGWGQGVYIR
T1 sequence (P54290 25-944 partner): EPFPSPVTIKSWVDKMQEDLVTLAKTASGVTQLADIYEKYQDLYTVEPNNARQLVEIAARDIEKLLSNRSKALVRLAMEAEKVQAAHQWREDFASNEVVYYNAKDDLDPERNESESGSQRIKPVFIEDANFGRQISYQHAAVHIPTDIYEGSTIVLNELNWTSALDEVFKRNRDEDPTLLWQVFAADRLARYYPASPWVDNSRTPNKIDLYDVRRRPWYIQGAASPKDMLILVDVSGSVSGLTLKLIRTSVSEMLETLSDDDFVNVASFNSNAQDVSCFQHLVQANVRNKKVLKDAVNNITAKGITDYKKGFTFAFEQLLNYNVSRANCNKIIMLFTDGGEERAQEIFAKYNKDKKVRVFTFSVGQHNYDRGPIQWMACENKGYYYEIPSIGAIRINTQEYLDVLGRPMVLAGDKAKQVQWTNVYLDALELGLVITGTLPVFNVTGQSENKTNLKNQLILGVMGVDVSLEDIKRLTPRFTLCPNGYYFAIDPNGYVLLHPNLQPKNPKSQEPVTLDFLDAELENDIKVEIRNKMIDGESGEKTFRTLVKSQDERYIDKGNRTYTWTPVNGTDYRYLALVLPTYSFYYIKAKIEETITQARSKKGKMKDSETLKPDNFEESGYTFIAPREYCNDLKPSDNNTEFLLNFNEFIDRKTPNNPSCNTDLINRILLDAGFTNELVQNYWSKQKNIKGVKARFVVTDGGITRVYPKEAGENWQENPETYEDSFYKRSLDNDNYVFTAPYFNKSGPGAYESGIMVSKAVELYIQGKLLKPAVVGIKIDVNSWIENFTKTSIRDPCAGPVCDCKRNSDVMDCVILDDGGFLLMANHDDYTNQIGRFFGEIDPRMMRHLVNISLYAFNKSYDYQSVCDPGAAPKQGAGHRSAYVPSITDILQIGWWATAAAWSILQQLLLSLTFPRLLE
T1 sequence (P54290 945-1091 partner): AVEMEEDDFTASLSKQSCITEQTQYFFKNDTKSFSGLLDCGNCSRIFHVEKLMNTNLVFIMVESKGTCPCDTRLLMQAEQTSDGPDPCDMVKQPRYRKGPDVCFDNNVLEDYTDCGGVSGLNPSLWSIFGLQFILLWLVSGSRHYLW

Row | inhibition at 10 µM (TCaV1 [1]) | SMILES | inhibition at 10 µM (rCaV1.2 [2]) | further results
1 |  | COC(=O)C1=C(C)NC(C)=C([N+](=O)[O-])[C@@H]1c1ccccc1C(F)(F)F [R(+)BayK 8644] |  | inhibition at 100 µM (TCaV1 [1]; read-out: % block at 100 μM): 74.2 ± 0.05%; inhibition at 100 µM (rCaV1.2 [2]; read-out: % block at 100 μM): 97.3 ± 0.01%
2 |  | COC(=O)C1=C(C)NC(C)=C([N+](=O)[O-])[C@H]1c1ccccc1C(F)(F)F [S(-)BayK 8644] |  | fold-increase in peak current at 5 μM (TCaV1 [3]): 1.11 ± 0.024 fold; fold-increase in peak current at 5 μM (rCaV1.2 [4]): 1.64 ± 0.32 fold
3 | 11.5 ± 2.2% | COC(=O)C1=C(C)NC(C)=C(C(=O)OC(C)C)C1c1cccc2nonc12 (centres unmarked) [isradipine] | 95 ± 6.1% | 
4 | 5.8 ± 3.6% | COC(=O)C1=C(C)NC(C)=C(C(=O)OC)C1c1ccccc1[N+](=O)[O-] [nifedipine] | 99.7 ± 0.1% | 
